Key:
Format in all cases: biochemical
cathepsin S = cathepsin S (Homo sapiens, UniProt P25774); assay: Inhibitory activity assay against cathepsin S (enzyme assay); details: Z-Phe-Arg-AMC 70 μM, enzyme 3 nM, pH 6.5, 45 minutes
Procedure: In order to measure the enzyme activity of cathepsin S, a buffer solution (pH 6.5) consisting of 50 mM MES, 2.5 mM DTT, 1.0 mM EDTA, 0.001% bovine serum albumin (BSA), and 10% DMSO was prepared. The substrate, the test material, and the enzyme were mixed in the buffer solution in a predetermined concentration. The Z-Phe-Arg-AMC substrate was used in the final concentration of 70 μM. The test material was used in the final concentrations of 10.0 μM, 3.33 μM, 1.11 μM, 0.370 μM, 0.123 μM, 0.0412 μM, 0.0137 μM, 0.00457 μM, 0.00152 μM, and 0.000508 μM, respectively. The cathepsin S enzyme was used in the final concentration of 3 nM. The final volume of the enzyme reaction solution was 10 μL.
After reacting the mixture of substrate, test material, and enzyme for 45 minutes, the enzyme activity was measured with the EnVision (Perkin Elmer) microplate reader at an absorption wavelength of 340 nm and an emission wavelength of 460 nm. IC50 values were determined using 4-parameter logistic curve fit program of GraphPad Prism.

cathepsin K = target: T1, cathepsin K (Homo sapiens, UniProt P43235); assay: Inhibitory activity assay against cathepsin K (enzyme assay); details: Z-Phe-Arg-AMC 10 μM, enzyme 1 nM, pH 5.5, 30 minutes
T1 sequence (P43235 115-329): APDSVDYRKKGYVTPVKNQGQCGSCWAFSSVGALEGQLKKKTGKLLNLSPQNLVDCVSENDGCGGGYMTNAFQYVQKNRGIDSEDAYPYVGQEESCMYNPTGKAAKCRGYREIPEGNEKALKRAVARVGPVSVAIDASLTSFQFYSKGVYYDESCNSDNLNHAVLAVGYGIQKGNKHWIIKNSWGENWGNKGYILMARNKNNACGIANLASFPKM
Procedure: In order to measure the enzyme activity of cathepsin K, a buffer solution (pH 5.5) consisting of 50 mM 2-(N-morpholino)ethanesulfonic acid (MES), 2 mM dithiothreitol (DTT), 2.5 mM ethylenediaminetetraacetic acid (EDTA), 0.01% Triton X-100, and 10% dimethyl sulfoxide (DMSO) was prepared. The substrate, the test material, and the enzyme were mixed in the buffer solution in a predetermined concentration. The Z-Phe-Arg-AMC substrate was used in the final concentration of 10 μM. The test material was used in the final concentrations of 10.0 μM, 3.33 μM, 1.11 μM, 0.370 μM, 0.123 μM, 0.0412 μM, 0.0137 μM, 0.00457 μM, 0.00152 μM, and 0.000508 μM, respectively. The cathepsin K enzyme was used in the final concentration of 1 nM. The final volume of the enzyme reaction solution was 10 μL. After reacting the mixture of substrate, test material, and enzyme for 30 minutes, the enzyme activity was measured with the Synergy Neo (Biotek) microplate reader at an absorption wavelength of 355 nm and an emission wavelength of 460 nm. IC50 values were determined using 4-parameter logistic curve fit program of GraphPad Prism.

cathepsin B = cathepsin B (Homo sapiens, UniProt P07858); assay: Inhibitory activity assay against cathepsin B (enzyme assay); details: Z-Arg-Arg-AMC 40 μM, enzyme 1 nM, pH 6.0, 90 minutes
Procedure: In order to measure the enzyme activity of cathepsin B, a buffer solution (pH 6.0) consisting of 50 mM MES, 5 mM DTT, 2.5 mM EDTA, 0.005% Polysorbate 20, and 10% DMSO was prepared. The substrate, the test material, and the enzyme were mixed in the buffer solution in a predetermined concentration. The Z-Arg-Arg-AMC substrate was used in the final concentration of 40 μM. The test material was used in the final concentrations of 10.0 μM, 3.33 μM, 1.11 μM, 0.370 μM, 0.123 μM, 0.0412 μM, 0.0137 μM, 0.00457 μM, 0.00152 μM, and 0.000508 μM, respectively. The cathepsin B enzyme was used in the final concentration of 1 nM. The final volume of the enzyme reaction solution was 10 μL. After reacting the mixture of substrate, test material, and enzyme for 90 minutes, the enzyme activity was measured with the EnVision (Perkin Elmer) microplate reader at an absorption wavelength of 340 nm and an emission wavelength of 460 nm. IC50 values were determined using 4-parameter logistic curve fit program of GraphPad Prism.

cathepsin L = cathepsin L (Homo sapiens, UniProt P07711); assay: Inhibitory activity assay against cathepsin L (enzyme assay); details: Z-Phe-Arg-AMC 2 μM, enzyme 3 nM, pH 5.5, 30 minutes
Chain of cathepsin L (P07711 114-333, species assumed): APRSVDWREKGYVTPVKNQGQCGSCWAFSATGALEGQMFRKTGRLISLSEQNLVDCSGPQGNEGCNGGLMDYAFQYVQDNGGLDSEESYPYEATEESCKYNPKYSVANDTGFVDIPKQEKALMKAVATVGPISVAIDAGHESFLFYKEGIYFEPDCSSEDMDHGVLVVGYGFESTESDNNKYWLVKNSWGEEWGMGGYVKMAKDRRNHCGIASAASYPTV
Procedure: In order to measure the enzyme activity of cathepsin L, a buffer solution (pH 5.5) consisting of 50 mM MES, 2.5 mM DTT, 2.5 mM EDTA, 0.005% Polysorbate 20, and 10% DMSO was prepared. The substrate, the test material, and the enzyme were mixed in the buffer solution in a predetermined concentration. The Z-Phe-Arg-AMC substrate was used in the final concentration of 2 μM. The test material was used in the final concentrations of 10.0 μM, 3.33 μM, 1.11 μM, 0.370 μM, 0.123 μM, 0.0412 μM, 0.0137 μM, 0.00457 μM, 0.00152 μM, and 0.000508 μM, respectively. The cathepsin L enzyme was used in the final concentration of 3 nM. The final volume of the enzyme reaction solution was 10 μL. After reacting the mixture of substrate, test material, and enzyme for 30 minutes, the enzyme activity was measured with the EnVision (Perkin Elmer) microplate reader at an absorption wavelength of 340 nm and an emission wavelength of 460 nm. IC50 values were determined using 4-parameter logistic curve fit program of GraphPad Prism.

Chain of cathepsin S (P25774 115-331, species assumed): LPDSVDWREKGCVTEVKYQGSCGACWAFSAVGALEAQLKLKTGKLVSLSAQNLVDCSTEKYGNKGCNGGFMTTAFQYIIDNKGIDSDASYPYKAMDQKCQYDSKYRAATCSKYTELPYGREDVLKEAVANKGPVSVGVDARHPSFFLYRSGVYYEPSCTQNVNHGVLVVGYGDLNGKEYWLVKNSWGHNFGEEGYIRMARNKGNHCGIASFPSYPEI

SMILES | IC50 (cathepsin S) [nM] | IC50 (cathepsin K) [nM] | IC50 (cathepsin B) [nM] | IC50 (cathepsin L) [nM]
N#Cc1nccc(C2(NC(=O)OCc3ccc(Br)cc3)CCCC2)n1 [Example 2, 4-bromobenzyl (1-(2-cyanopyrimidin-4-yl)cyclopentyl)carbamate] | > 10000 | 21.8 | > 10000 | > 10000
N#Cc1nccc(C2(NC(=O)OCc3cccc(Br)c3)CCCC2)n1 [Example 3, 3-bromobenzyl (1-(2-cyanopyrimidin-4-yl)cyclopentyl)carbamate] | > 10000 | 507 | > 10000 | 6390
N#Cc1nccc(C2(NC(=O)OCCc3ccccc3)CCCC2)n1 [Example 4, phenethyl (1-(2-cyanopyrimidin-4-yl)cyclopentyl)carbamate] | > 10000 | 1150 | > 10000 | > 10000
N#Cc1nccc(C2(NC(=O)OCc3cccc(F)c3)CCCC2)n1 [Example 7, 3-fluorobenzyl (1-(2-cyanopyrimidin-4-yl)cyclopentyl)carbamate] | > 10000 | 56.3 | > 10000 | 3550
N#Cc1nccc(C2(NC(=O)OCc3ccccc3)CCCCC2)n1 [Example 10, Benzyl (1-(2-cyanopyrimidin-4-yl)cyclohexyl)carbamate] | 7010 | 5.6 | > 10000 | 1180
N#Cc1nccc(C2(NC(=O)OCc3ccc(Br)cc3)CCCCC2)n1 [Example 11, 4-bromobenzyl (1-(2-cyanopyrimidin-4-yl)cyclohexyl)carbamate] | > 10000 | 18.8 | > 10000 | > 10000
N#Cc1nccc(C2(NC(=O)OCc3cccc(Br)c3)CCCCC2)n1 [Example 12, 3-bromobenzyl (1-(2-cyanopyrimidin-4-yl)cyclohexyl)carbamate] | > 10000 | 168 | > 10000 | 6910
Cc1cccc(COC(=O)NC2(c3ccnc(C#N)n3)CCCCC2)c1 [Example 13, 3-methylbenzyl (1-(2-cyanopyrimidin-4-yl)cyclohexyl)carbamate] | > 10000 | 241 | > 10000 | 5080
N#Cc1nccc(C2(NC(=O)OCc3cccc(C(F)(F)F)c3)CCCCC2)n1 [Example 14, 3-(trifluoromethyl)benzyl (1-(2-cyanopyrimidin-4-yl)cyclohexyl)carbamate] | > 10000 | 3700 | > 10000 | 9230
N#Cc1nccc(C2(NC(=O)OCc3cccc(F)c3)CCCCC2)n1 [Example 15, 3-fluorobenzyl (1-(2-cyanopyrimidin-4-yl)cyclohexyl)carbamate] | 8600 | 45.5 | > 10000 | 1620
N#Cc1nccc(C2(NC(=O)OCc3cccc(Cl)c3)CCCCC2)n1 [Example 16, 3-chlorobenzyl (1-(2-cyanopyrimidin-4-yl)cyclohexyl)carbamate] | > 10000 | 277 | > 10000 | 4610
Cc1ccccc1COC(=O)NC1(c2ccnc(C#N)n2)CCCCC1 [Example 17, 2-methylbenzyl (1-(2-cyanopyrimidin-4-yl)cyclohexyl)carbamate] | > 10000 | 58.4 | > 10000 | 1420
N#Cc1nccc(C2(NC(=O)OCc3ccccc3F)CCCCC2)n1 [Example 18, 2-fluorobenzyl (1-(2-cyanopyrimidin-4-yl)cyclohexyl)carbamate] | 8320 | 60.8 | > 10000 | 1740
N#Cc1nccc(C2(NC(=O)OCc3ccccc3Br)CCCCC2)n1 [Example 19, 2-bromobenzyl (1-(2-cyanopyrimidin-4-yl)cyclohexyl)carbamate] | 5850 | 18 | > 10000 | 1060
N#Cc1nccc(C2(NC(=O)OCc3ccccc3C(F)(F)F)CCCCC2)n1 [Example 20, 2-(trifluoromethyl)benzyl (1-(2-cyanopyrimidin-4-yl)cyclohexyl)carbamate] | 9230 | 32.9 | > 10000 | 2010
COc1ccccc1COC(=O)NC1(c2ccnc(C#N)n2)CCCCC1 [Example 21, 2-methoxybenzyl (1-(2-cyanopyrimidin-4-yl)cyclohexyl)carbamate] | > 10000 | 83.8 | > 10000 | 2860
Cc1ccc(COC(=O)NC2(c3ccnc(C#N)n3)CCCCC2)cc1 [Example 22, 4-methylbenzyl (1-(2-cyanopyrimidin-4-yl)cyclohexyl)carbamate] | > 10000 | 37.2 | > 10000 | > 10000
N#Cc1nccc(C2(NC(=O)OCc3ccc(Cl)cc3)CCCCC2)n1 [Example 23, 4-chlorobenzyl (1-(2-cyanopyrimidin-4-yl)cyclohexyl)carbamate] | > 10000 | 19.9 | > 10000 | > 10000
N#Cc1nccc(C2(NC(=O)OCc3ccc(C(F)(F)F)cc3)CCCCC2)n1 [Example 24, 4-(trifluoromethyl)benzyl (1-(2-cyanopyrimidin-4-yl)cyclohexyl)carbamate] | > 10000 | 37.9 | > 10000 | > 10000
COc1ccc(COC(=O)NC2(c3ccnc(C#N)n3)CCCCC2)cc1 [Example 25, 4-methoxybenzyl (1-(2-cyanopyrimidin-4-yl)cyclohexyl)carbamate] | > 10000 | 41 | > 10000 | > 10000
N#Cc1nccc(C2(NC(=O)OCc3cccc4ccccc34)CCCCC2)n1 [Example 26, naphthalen-1-ylmethyl (1-(2-cyanopyrimidin-4-yl)cyclohexyl)carbamate] | > 10000 | 61.7 | > 10000 | 5950
N#Cc1nccc(C2(NC(=O)OCc3ccc(F)cc3)CCCCC2)n1 [Example 27, 4-fluorobenzyl (1-(2-cyanopyrimidin-4-yl)cyclohexyl)carbamate] | 7780 | 22.4 | > 10000 | 895

From patent publication US11299478B2, “2-cyanopyrimidin-4-yl carbamate or urea derivative or salt thereof, and pharmaceutical composition including same” (HANLIM PHARMACEUTICAL CO., LTD., priority 2018, dated 2022)
